Data set [1] addresses T1, IP receptor (Homo sapiens, UniProt P43119).
T1 construct: HEL cells were collected with centrifugation and washed with cAMP assay buffer; host or cells: HEL 92.1.7 human erythroleukemia cells
Put plainly: Iloprost-induced cAMP production assay in HEL cells (Assay 2). Format: cell-based. The following applies: read-out: Activity grade assay 2. The protocol:
[Iloprost-Induced cAMP Production Assay in HEL Cells] (Assay 2)
HEL cells were collected with centrifugation and washed with cAMP assay buffer (CAB: Hank's balanced salt solution, 17 mM Hepes, 0.1% bovine serum albumin, 1 mM IBMX, 0.4% DMSO, and 1 mM L-ascorbic acid sodium salt (pH 7.4)). Cells were suspended at the density of 2.5×10^5 cells/ml in CAB, and twenty thousand cells in 80 μl aliquot of cell suspension were put in a well of 96 well plate (Falcon). Then, 10 μl of compound solution diluted with 1% DMSO in CAB or buffer alone was added. The plate was incubated at 37° C. for 30 min. Then, another 10 μl containing 100 nM iloprost in CAB or buffer alone was added and further incubated at 37° C. for 30 min. cAMP content in the well was measured by a cAMP ELISA kit (Applied Biosystems, USA).
Results of Iloprost-induced cAMP production assay (Assay2) are shown in Examples and tables of the Examples below. For practical reasons, the compounds are grouped in three classes of activity as follows: A(=or<)0.1μM<B(=or<)1μM<C
For orientation: cAMP levels reflect the balance of adenylyl cyclase and phosphodiesterase activity.

This is an account of results in patent US20060166989A1, “2-naphthamide derivatives” (Bayer Healthcare AG, priority 2002, published 2006).

Usually melting point stands for the temperature of the solid-liquid transition.

T1 sequence (P43119 whole entry): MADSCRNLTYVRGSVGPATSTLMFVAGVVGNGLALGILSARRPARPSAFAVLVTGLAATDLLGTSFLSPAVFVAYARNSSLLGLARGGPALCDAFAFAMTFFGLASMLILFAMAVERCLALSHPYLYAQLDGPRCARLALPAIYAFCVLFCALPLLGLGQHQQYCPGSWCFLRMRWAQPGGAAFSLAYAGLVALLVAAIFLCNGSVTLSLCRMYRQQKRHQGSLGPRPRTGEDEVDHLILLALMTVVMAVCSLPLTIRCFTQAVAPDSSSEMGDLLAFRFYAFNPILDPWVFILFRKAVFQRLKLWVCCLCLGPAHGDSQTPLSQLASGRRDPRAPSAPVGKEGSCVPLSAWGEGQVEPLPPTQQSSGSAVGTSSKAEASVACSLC

In turn, `O=C(N[C@@H](Cc1ccccc1)C(=O)O)c1ccc2cc(OCc3ccccc3)ccc2c1` (single isomer, unassigned) [Example 1-1, N-(6-Benzyloxy-2-naphthoyl)phenylalanine] yielded a melting point of 230 °C. Also, the IC50 in data set [1] is below 0.1 µM.
For the compound `O=C(NC(CO)C(=O)O)c1ccc2cc(OCc3ccccc3)ccc2c1` (stereo not shown) [Example 1-2], the melting point lay in the range of 196 to 198 °C. Also, the IC50 in data set [1] is above 1 µM.
Regarding `O=C(NC(Cc1ccc(C(F)(F)F)cc1)C(=O)O)c1ccc2cc(OCc3ccccc3)ccc2c1` (stereo not shown) [Example 1-3], the melting point is 212 to 214 °C (dec.). Besides, in data set [1], the IC50 was below 0.1 µM.
In the same order, the values of `O=C(NC(Cc1ccccc1)C(=O)O)c1ccc2cc(OCCOc3ccccc3)ccc2c1` (stereo not shown) [Example 1-4] are 225 to 227 °C and 0.1 to 1 µM.
The matching figures for `O=C(NC(Cc1ccccc1)C(=O)O)c1ccc2cc(OCc3ccc(F)cc3)ccc2c1` (stereo not shown) [Example 1-5]: 197 °C and below 0.1 µM.
In the same order, the values of `O=C(NC(Cc1ccccc1)C(=O)O)c1ccc2cc(OCc3cccc(F)c3)ccc2c1` (stereo not shown) [Example 1-6] are 197 to 199 °C and below 0.1 µM.
`O=C(NC(Cc1ccccc1)C(=O)O)c1ccc2cc(OCc3ccccc3F)ccc2c1` (stereo not shown) [Example 1-7]: the melting point was in the range of 180 to 182 °C. For the same compound, the IC50 in data set [1] was below 0.1 µM.
With `O=C(NC(Cc1ccccc1)C(=O)O)c1ccc2cc(OCc3cccnc3)ccc2c1` (stereo not shown) [Example 1-8], the melting point stood at 217 °C. In data set [1], the IC50 is below 0.1 µM.
`O=C(NC(Cc1ccccc1)C(=O)O)c1ccc2cc(OCc3ccccn3)ccc2c1` (stereo not shown) [Example 1-9] came in with a melting point of 214 °C. Moreover, in data set [1], the IC50 lay within 0.1 to 1 µM.
In the same order, the values of `O=C(NC(Cc1ccccc1)C(=O)O)c1ccc2cc(OCc3ccc(F)c(F)c3)ccc2c1` (stereo not shown) [Example 1-10] are 185 °C and below 0.1 µM.
For the compound `O=C(NC(Cc1ccccc1)C(=O)O)c1ccc2cc(OCCn3cccc3)ccc2c1` (stereo not shown) [Example 1-11], the melting point was 168 to 169 °C. The IC50 in data set [1] was below 0.1 µM.
`O=C(NC(Cc1ccccc1)C(=O)O)c1ccc2cc(OCc3ccncc3)ccc2c1` (stereo not shown) [Example 1-12]: the melting point lay in the range of 220 to 221 °C. In addition, the IC50 in data set [1] is below 0.1 µM.
`O=C(NC(Cc1ccccc1C(F)(F)F)C(=O)O)c1ccc2cc(OCc3ccccc3)ccc2c1` (stereo not shown) [Example 1-13]: in data set [1], the IC50 was in the range of 0.1 to 1 µM.
Regarding `O=C(NC(Cc1cccc(C(F)(F)F)c1)C(=O)O)c1ccc2cc(OCc3ccccc3)ccc2c1` (stereo not shown) [Example 1-14], the IC50 in data set [1] was below 0.1 µM.
On the same count and under the same terms, in the case of `O=C(NC(Cc1c[nH]c2ccccc12)C(=O)O)c1ccc2cc(OCc3ccccc3)ccc2c1` (stereo not shown) [Example 1-15] it was below 0.1 µM.
With `COc1ccc(CC(NC(=O)c2ccc3cc(OCc4ccccc4)ccc3c2)C(=O)O)cc1` (stereo not shown) [Example 1-16], the IC50 in data set [1] was below 0.1 µM.
`COc1cc(CC(NC(=O)c2ccc3cc(OCc4ccccc4)ccc3c2)C(=O)O)ccc1O` (stereo not shown) [Example 1-17]: the IC50 in data set [1] was below 0.1 µM.
Turning to `O=C(NC(C(=O)O)C(O)c1ccccc1)c1ccc2cc(OCc3ccccc3)ccc2c1` (stereo not shown) [Example 1-18], the IC50 in data set [1] was below 0.1 µM.
With `O=C(NC(Cc1ccccc1)C(=O)O)c1ccc2cc(OCCc3ccccc3)ccc2c1` (stereo not shown) [Example 1-19], the melting point was found to be 144 °C. The IC50 in data set [1] was below 0.1 µM.
Consider `O=C(NC(Cc1ccc(Cl)cc1)C(=O)O)c1ccc2cc(OCc3ccccc3)ccc2c1` (stereo not shown) [Example 1-20], for which the melting point lay in the range of 202 to 204 °C. The IC50 in data set [1] was below 0.1 µM.
The matching figures for `O=C(NC(Cc1cccc(F)c1)C(=O)O)c1ccc2cc(OCc3ccccc3)ccc2c1` (stereo not shown) [Example 1-21]: 188 to 191 °C and below 0.1 µM.
The matching figures for `O=C(NC(Cc1ccc(F)cc1)C(=O)O)c1ccc2cc(OCc3ccccc3)ccc2c1` (stereo not shown) [Example 1-22]: 214 to 216 °C and below 0.1 µM.
With `O=C(NC(Cc1ccccc1)C(=O)O)c1ccc2cc(OCc3ccccc3Cl)ccc2c1` (stereo not shown) [Example 1-23], the melting point turned out to be 215 °C. Further, in data set [1], the IC50 was below 0.1 µM.
In the same order, the values of `O=C(NC(Cc1ccccc1)C(=O)O)c1ccc2cc(OCc3cccc(Cl)c3)ccc2c1` (stereo not shown) [Example 1-24] are 187 °C and below 0.1 µM.
The matching figures for `O=C(NC(Cc1ccccc1)C(=O)O)c1ccc2cc(OCc3ccc(Cl)cc3)ccc2c1` (stereo not shown) [Example 1-25]: 226 °C and 0.1 to 1 µM.
In the same order, the values of `O=C(NC(Cc1ccccc1)C(=O)O)c1ccc2cc(OCc3ccccc3C(F)(F)F)ccc2c1` (stereo not shown) [Example 1-26] are 167 °C and 0.1 to 1 µM.
As for `O=C(NC(Cc1ccccc1)C(=O)O)c1ccc2cc(OCc3cccc(C(F)(F)F)c3)ccc2c1` (stereo not shown) [Example 1-27], the melting point came to 158 °C. In addition, in data set [1], the IC50 was above 1 µM.
The matching figures for `O=C(NC(Cc1ccccc1)C(=O)O)c1ccc2cc(OCc3ccc(C(F)(F)F)cc3)ccc2c1` (stereo not shown) [Example 1-28]: 224 °C and above 1 µM.
The matching figures for `COc1ccccc1COc1ccc2cc(C(=O)NC(Cc3ccccc3)C(=O)O)ccc2c1` (stereo not shown) [Example 1-29]: 169 °C and below 0.1 µM.
In the same order, the values of `COc1cccc(COc2ccc3cc(C(=O)NC(Cc4ccccc4)C(=O)O)ccc3c2)c1` (stereo not shown) [Example 1-30] are 163 °C and below 0.1 µM.
`COc1ccc(COc2ccc3cc(C(=O)NC(Cc4ccccc4)C(=O)O)ccc3c2)cc1` (stereo not shown) [Example 1-31] returned a melting point of 188 °C. In data set [1], the IC50 was above 1 µM.
With `O=C(NC(Cc1ccccc1)C(=O)O)c1ccc2cc(OCc3ccc(Cl)c(Cl)c3)ccc2c1` (stereo not shown) [Example 1-32], the melting point was 202 °C. In addition, in data set [1], the IC50 lay within 0.1 to 1 µM.
On to `O=C(NC(Cc1ccccc1)C(=O)O)c1ccc2cc(OCc3cccc(Cl)c3Cl)ccc2c1` (stereo not shown) [Example 1-33], for which the melting point is 211 °C. The IC50 in data set [1] was below 0.1 µM.
Compound `O=C(NC(Cc1ccccc1)C(=O)O)c1ccc2cc(OCc3cc(Cl)cc(Cl)c3)ccc2c1` (stereo not shown) [Example 1-34] showed a melting point of 180 °C. Further, the IC50 in data set [1] was below 0.1 µM.
In the same order, the values of `COc1cc(COc2ccc3cc(C(=O)NC(Cc4ccccc4)C(=O)O)ccc3c2)cc(OC)c1` (stereo not shown) [Example 1-35] are 140 °C and below 0.1 µM.
In the case of `O=C(NC(Cc1ccccc1)C(=O)O)c1ccc2cc(OCc3cccc(OC(F)(F)F)c3)ccc2c1` (stereo not shown) [Example 1-36], the melting point was determined as 157 °C. Besides, the IC50 in data set [1] was in the range of 0.1 to 1 µM.
`O=C(NC(Cc1ccccc1)C(=O)O)c1ccc2cc(OCc3ccccc3OC(F)(F)F)ccc2c1` (stereo not shown) [Example 1-37] returned a melting point of 158 °C. In addition, the IC50 in data set [1] was above 1 µM.
The matching figures for `COc1cccc(COc2ccc3cc(C(=O)NC(Cc4ccccc4)C(=O)O)ccc3c2)c1OC` (stereo not shown) [Example 1-38]: 161 °C and above 1 µM.
`Cc1c(COc2ccc3cc(C(=O)NC(Cc4ccccc4)C(=O)O)ccc3c2)cccc1[N+](=O)[O-]` (stereo not shown) [Example 1-39]: the melting point was determined as 202 °C. In data set [1], the IC50 is 0.1 to 1 µM.
The matching figures for `Cc1ccc(C)c(COc2ccc3cc(C(=O)NC(Cc4ccccc4)C(=O)O)ccc3c2)c1` (stereo not shown) [Example 1-40]: 210 °C and 0.1 to 1 µM.
The matching figures for `O=C(NC(Cc1ccccc1)C(=O)O)c1ccc2cc(OCc3c(Cl)cccc3Cl)ccc2c1` (stereo not shown) [Example 1-41]: 245 °C and 0.1 to 1 µM.
For the compound `O=C(NC(Cc1ccccc1)C(=O)O)c1ccc2cc(OCc3ccc(Cl)cc3Cl)ccc2c1` (stereo not shown) [Example 1-42], the melting point was 202 °C. Further, the IC50 in data set [1] is above 1 µM.
Regarding `O=C(NC(Cc1ccccn1)C(=O)O)c1ccc2cc(OCc3ccccc3)ccc2c1` (stereo not shown) [Example 1-43], the melting point was 172 to 173 °C (dec.). In data set [1], the IC50 fell in the range of 0.1 to 1 µM.
In the same order, the values of `O=C(NC(Cc1cccs1)C(=O)O)c1ccc2cc(OCc3ccccc3)ccc2c1` (stereo not shown) [Example 1-44] are 200 to 202 °C and below 0.1 µM.
Take `O=C(NC(Cc1ccc(Br)cc1)C(=O)O)c1ccc2cc(OCc3ccccc3)ccc2c1` (stereo not shown) [Example 1-45]: the melting point fell in the range of 219 to 220 °C. The IC50 in data set [1] was below 0.1 µM.
The matching figures for `O=C(NC(Cc1ccc([N+](=O)[O-])cc1)C(=O)O)c1ccc2cc(OCc3ccccc3)ccc2c1` (stereo not shown) [Example 1-46]: 227 to 228 °C and below 0.1 µM.
The matching figures for `O=C(NC(Cc1cccc(O)c1)C(=O)O)c1ccc2cc(OCc3ccccc3)ccc2c1` (stereo not shown) [Example 1-47]: 214 °C and below 0.1 µM.
In the same order, the values of `O=C(NC(Cc1cccc2ccccc12)C(=O)O)c1ccc2cc(OCc3ccccc3)ccc2c1` (stereo not shown) [Example 1-48] are 218 °C and below 0.1 µM.
As to `O=C(N[C@@H](Cc1ccccc1)C(=O)O)c1ccc2cc(OCc3ccccc3)ccc2c1` [Example 2-2, N-[6-(benzyloxy)-2-naphthoyl]-L-phenylalanine], the IC50 in data set [1] was above 1 µM.
